Assays:
[1] = Fluorescence excitation/emission of the styryl dye library compounds; assay type: physicochemical
[2] = test system: UACC-62 human melanoma cells; assay: Organelle localization in live cells by fluorescence microscopy; conditions: live UACC-62 cells, fluorescence microscope λex=405, 490, 570 nm; λem>510 nm

| SMILES | EM(nm) ([1]; EX/EM peak no. 1) | EX(nm) ([1]; EX/EM peak no. 1) | LOCALIZATION [2] | EM(nm) ([1]; EX/EM peak no. 2) | EX(nm) ([1]; EX/EM peak no. 2) |
| --- | --- | --- | --- | --- | --- |
| C[n+]1ccc(C=CCc2ccccc2)cc1.[I-] [Compound A1] | 490 | 390 nm | CYTO | – | – |
| C[n+]1ccc(C=Cc2ccc(OCc3ccccc3)c(OCc3ccccc3)c2)cc1.[I-] [Compound A12] | 540 | 330-460 nm | MITO | – | – |
| COc1ccc(C=Cc2cc[n+](C)cc2)c2ccccc12.[I-] [Compound A14] | 550 | 430(broad) nm | MITO | – | – |
| CN(C)c1ccc(C=Cc2cc[n+](C)cc2)cc1.[I-] [Compound A19] | 600 | 460 nm | MITO and NUCLEOLI | – | – |
| COc1ccc2ccccc2c1C=Cc1cc[n+](C)cc1.[I-] [Compound A23] | 540 | 450 (broad) nm | CYTO and MITO | – | – |
| C[n+]1ccc(C=Cc2c[nH]c3ccccc23)cc1.[I-] [Compound A24] | 530 | 400) nm | CYTO | – | – |
| CN(C)c1ccc(C=Cc2cc[n+](C)cc2)c2ccccc12.[I-] [Compound A27] | 640 | 450 nm | CYTO | – | – |
| C[n+]1ccc(C=Cc2cccc3ccccc23)cc1.[I-] [Compound A32] | 510 | 400 nm | MITO and CYTO and VESICLE | – | – |
| COc1ccc(/C=C/c2cc[n+](C34CC5CC(CC(C5)C3)C4)cc2)cc1OC.[Br-] [Compound B11] | 540 | 340-440 nm | MITO | – | – |
| Oc1ccc(C=Cc2cc[n+](C34CC5CC(CC(C5)C3)C4)cc2)cc1.[Br-] [Compound B16] | 590 | 400 nm | MITO | – | – |
| O=[N+]([O-])c1ccc(C=Cc2cc[n+](C34CC5CC(CC(C5)C3)C4)cc2)cc1.[Br-] [Compound B22] | 600 | 410-420 nm | MITO | – | – |
| O=Cc1ccccc1C=Cc1cc[n+](C23CC4CC(CC(C4)C2)C3)cc1.[Br-] [Compound B25] | 570 | 430 nm | CYTO | – | – |
| Fc1c(F)c(F)c(C=Cc2cc[n+](C34CC5CC(CC(C5)C3)C4)cc2)c(F)c1F.[Br-] [Compound B31] | 580 | 430 nm | MITO | – | – |
| C(=Cc1ccc2ccccc2c1)c1cc[n+](C23CC4CC(CC(C4)C2)C3)cc1.[Br-] [Compound B33] | 500 | 350-420 nm | MITO and CYTO and VESICLE | 580 | 360-400 nm |
| O=[N+]([O-])c1ccccc1C=CC=Cc1cc[n+](C23CC4CC(CC(C4)C2)C3)cc1.[Br-] [Compound B36] | 520 | 420 nm | MITO | – | – |
| CN(C)c1ccc(C=CC=Cc2cc[n+](C34CC5CC(CC(C5)C3)C4)cc2)cc1.[Br-] [Compound B37] | 700 | – | MITO | – | – |
| COc1cc(OC)c(OC)cc1C=Cc1cc[n+](C23CC4CC(CC(C4)C2)C3)cc1.[Br-] [Compound B38] | 580 | 400-480 nm | NUCLEI and MITO | – | – |
| C[n+]1ccccc1C=Cc1ccc(OCc2ccccc2)c(OCc2ccccc2)c1.[I-] [Compound C12] | 520 | 390 (broad) nm | MITO? and ER? | – | – |
| CN(C)c1ccc(C=Cc2cccc[n+]2C)cc1.[I-] [Compound C19] | 580 | 460 (broad) nm | MITO | – | – |
| COc1ccc2ccccc2c1C=Cc1cccc[n+]1C.[I-] [Compound C23] | 530 | 420 nm | CYTO | – | – |
| COc1ccc2ccccc2c1/C=C/c1c(C)ccc[n+]1C.[I-] [Compound D23] | 510 | 420(broad) nm | CYTO | – | – |
| Cc1ccc[n+](C)c1C=CC=Cc1ccc(N(C)C)cc1.[I-] [Compound D37] | 650 | 470(broad) nm | MITO | – | – |

| SMILES | EM(nm) ([1]; EX/EM peak no. 1) | EX(nm) ([1]; EX/EM peak no. 1) | LOCALIZATION [2] | EM(nm) ([1]; EX/EM peak no. 2) | EX(nm) ([1]; EX/EM peak no. 2) |
| --- | --- | --- | --- | --- | --- |
| CCc1ccc(C=Cc2ccc(N(C)C)cc2)[n+](C)c1.[I-] [Compound E19] | 580 | 460(broad) nm | MITO | – | – |
| CCc1ccc(C=Cc2c(OC)ccc3ccccc23)[n+](C)c1.[I-] [Compound E23] | 510 | 420(broad) nm | CYTO | – | – |
| CCc1ccc(C=C/C=C/c2ccc(N(C)C)cc2)[n+](C)c1.[I-] [Compound E37] | 670 | 520 nm | MITO and NUCLEOLI | – | – |
| C[n+]1ccc(C=Cc2c[nH]c3ccccc23)cc1Br.[I-] [Compound F24] | 550 | 460 nm | VESICLE | – | – |
| Cc1ccc(C=Cc2cc[n+](C)c3ccccc23)cc1.[I-] [Compound G8] | 650 | 440 nm | MITO | – | – |
| COc1ccccc1C=Cc1cc[n+](C)c2ccccc12.[I-] [Compound G9] | 630 | 430 nm | MITO | – | – |
| C[n+]1ccc(C=Cc2ccc(OCc3ccccc3)c(OCc3ccccc3)c2)c2ccccc21.[I-] [Compound G12] | 590 | 420-460 nm | MITO and NUCLEOLI | – | – |
| COc1ccc(C=Cc2cc[n+](C)c3ccccc23)c2ccccc12.[I-] [Compound G14] | 620 | 480(broad) nm | MITO | – | – |
| CC(=O)Nc1ccc(/C=C/c2cc[n+](C)c3ccccc23)cc1.[I-] [Compound G18] | 670 | 430 nm | MITO | – | – |
| CN(C)c1ccc(/C=C/c2cc[n+](C)c3ccccc23)cc1.[I-] [Compound G19] | 670 | 500 nm | MITO | – | – |
| C[n+]1ccc(C=Cc2ccccc2[N+](=O)[O-])c2ccccc21.[I-] [Compound G20] | 670 | 490-540 nm | MITO | – | – |
| C[n+]1ccc(/C=C/c2cccc([N+](=O)[O-])c2)c2ccccc21.[I-] [Compound G21] | 670 | 450-550 nm | MITO | – | – |
| COc1ccc2ccccc2c1C=Cc1cc[n+](C)c2ccccc12.[I-] [Compound G23] | 610 | 450-500 nm | VESICLE | – | – |
| C[n+]1ccc(/C=C/c2c[nH]c3ccccc23)c2ccccc21.[I-] [Compound G24] | 610 | 490 nm | MITO | – | – |
| CN(C)c1ccc(C=Cc2cc[n+](C)c3ccccc23)c2ccccc12.[I-] [Compound G27] | 720 | 450-550(broad) nm | MITO | – | – |
| C[n+]1ccc(C=Cc2c(F)c(F)c(F)c(F)c2F)c2ccccc21.[I-] [Compound G31] | 650 | 430 nm | MITO and NUCLEOLI | – | – |
| C[n+]1ccc(C=Cc2cccc3ccccc23)c2ccccc21.[I-] [Compound G32] | 560 | 430 nm | MITO | – | – |
| C[n+]1ccc(C=Cc2ccc3ccccc3c2)c2ccccc21.[I-] [Compound G33] | 550 | 360-470 nm | MITO and CYTO | – | – |
| COc1cc(OC)c(OC)cc1C=Cc1cc[n+](C)c2ccccc12.[I-] [Compound G38] | 640 | 420 nm | VESICLE and CYTO and NUCLEI | – | – |
| C[n+]1c(C=CCc2ccccc2)ccc2ccccc21.[I-] [Compound H1] | 640 | – | MITO | – | – |
| C[n+]1c(C=Cc2ccccc2Br)ccc2ccccc21.[I-] [Compound H3] | 640 | 530 nm | MITO | – | – |
| Cc1cccc(/C=C/c2ccccn2)[n+]1C.[I-] [Compound L40] | 620 | 380 nm | – | – | – |

Source: patent publication US20050054006A1, “Combinatorial fluorescent library based on the styryl scaffold” (New York University, priority 2003, published 2005)
